The subject of this data set is enteric microorganism. Kind of data set: Low dose metformin usage in a large population. The conditions noted are these: low dose 0.125-0.25 g/day. The data set is classed as in vivo, human. The text has this:
One of the new discoveries of the present disclosure is the important health effect of low dose metformin. The normal dosage of metformin in Chinese population is 1-2 g per day, and the dose for the anti-aging clinical trial in the US is 1.7 g per day. It is known that one of the functions of metformin in regulating human health is through regulating enteric microorganism, whereas an unexpected discovery of the present disclosure is that low dose metformin (0.1-0.5 g/day, prefer for 0.125-0.25 g/day) can also promote health through regulating enteric microorganism. The application of low dose metformin can avoid long-term application caused side effects such as hypoglycemia, lactic acidosis, and hepatic and renal toxicity when normal dosage is used.

Take `CN(C)C(=N)N=C(N)N` [metformin, 1,1-Dimethylbiguanide]: the “time until stool returned to normal” value fell in the range of 4 to 5 days. For the same compound, the stool effect result (2-3 days after usage) is reported as “mild diarrhea”.

The values above are taken from US20210121419A1, “METFORMIN COMPOUNDED COMPOSITION AND METHOD THEREOF” (ZHOUSHAN TRITECH BIOSCIENCES, INC., priority 2018, published 2021).
